Measured values from US20120107417A1, “Effective Antitumor Treatments” (PHARMA MAR, S.A., priority 2000, published 2012).

Assays:
[1] = system: sc transplanted TE671; assay: ET-743/DDP against sc transplanted TE671; type: in vivo, human; conditions: single drugs at MTD or combination
[2] = system: ovarian 1 A 9 tumor; assay: ET-743/DDP against ovarian 1A9 tumor in vivo; parameters: species or system human; conditions: single agents
Description: The ovarian 1 A 9 tumor that is normally resistant to both ET-743 and DDP as single agents, in combination produced a tumor growth inhibition greater than 50%.

[3] = system: human ovarian carcinoma HOC8; assay: ET-743/DDP against orthotopically transplanted HOC8; type: in vivo; conditions: HOC8 orthotopic, peritoneal nodules with ascites; single agents
[4] = system: HT-1080; assay: SRB cytotoxicity assay and Chou-Talalay combination index, HT-1080; type: cell-based, human; conditions: Homo sapiens, HT-1080, 72 h; read-out: IC50 for human soft tissue sarcoma cells, HT-1080
Description: (§1) Soft tissue sarcoma cell lines, HT-1080 and HS-18 were maintained as monolayer cultures in RP<I-1640 containing 10% fetal bovine serum.
(§2) Cytotoxicity to drugs was determined by SRB cytotoxicity assay carried out in 96-well microtiter plates as described. Cells were plated in duplicate wells (5000 cells/well) and exposed to drugs at different concentrations. Cells were fixed with 50% TCA solution for 1 h and 0.4% SRB (Sigma) was added to each well. After a 30 min incubation, the plate were washed with 1% acetic acid and read at 570 nm on a Biowhitaker microplate reader 2001. The wells with cells containing no drugs and with medium plus drugs but no cells were used as positive and negative controls, respectively.
(§3) Cells were seeded into 96-well plates, as described previously. Cells were treated with seven different concentrations of the single drugs or combinations mixture at 1:100 (ET-743: the other drugs) molar ratio. After 72 h exposure, growth inhibition was measured using the SRB assay.
(§4) Using the same experimental setup described above, we exposed cells to three different concentrations of drugs which represents the IC25, IC50, IC75 of ET-743, DXR, TMTX and paclitaxel, respectively. After 24 hours pre-treatment with ET743 or the combination drug, the second drugs were added to the respective wells for 48 h. Growth inhibition was determined using the SRB assay.)
(§5) The CI was calculated by the Chou-Talalay equation, which takes into account both potency (Dm or IC50) and the shape of the dose effect curve (the m value). The general equation for the classic isobologram (CI=1) is given by:
(§6) CI=(D)1/(Dx)1+(D)2/(Dx)2 (A)

[5] = system: HS-18; assay: SRB cytotoxicity assay and Chou-Talalay combination index, HS-18; type: cell-based, human; conditions: Homo sapiens, 72 h; read-out: IC50 for human soft tissue sarcoma cells, HS-18
Description: as §1, §2, §3, §4, §5, §6

[6] = system: HT-1080 cells; assay: Cell cycle analysis (propidium iodide, FACS), HT-1080; type: cell-based, human
Description: (§7) Exponentially growth cells were treated with or without drugs for several hours. Cells were then collected and fixed with ice-cold 70% methanol. DNA was stained with propidium iodide as described previously. Ten thousand stained cells were analyzed on a Becton Dickinson fluorescence-activated cell sorter (FACS).

[7] = system: HS-18 cells; assay: Cell cycle analysis (propidium iodide, FACS), HS-18; type: cell-based, human
Description: as §7

[8] = system: human rabdomyosarcoma zenograft TE671; assay: ET-743/doxorubicin against TE671 xenograft in athymic (nude) mice; type: in vivo
Description: In vivo: Single iv treatments (ET-743, 0.1 mg/Kg; DOX, 10 mg/Kg) were administered in nude mice when xenograft tumors weighed approximately 100 mg.

[9] = system: murine fibrosarcoma UV2237; assay: ET-743/doxorubicin against murine fibrosarcoma UV2237 in mice; type: in vivo; conditions: alone or combination
[10] = system: UV2237/ADR; assay: ET-743/doxorubicin against mdr-resistant subline UV2237/ADR in mice; type: in vivo, murine; conditions: alone or combination
[11] = system: TE 671 cells; assay: Clonogenic assay ET-743/DOX, TE 671; type: cell-based, human; conditions: 1 hr exposures, isobologram analysis and Combination Index
Description: In vitro: The effect of each drug or combination after 1 hr exposures was evaluated by clonogenic assay.

[12] = Biodistribution/PK of DOX with ET-743 in nude mice with tumor xenografts; type: in vivo; conditions: DOX alone vs concomitant treatment with ET-743
Description: ET-743 has shown activity in patients with sarcoma refractory to DOX and ifosfamide. In view of its potential as an effective drug, we investigated (1) the preclinical anti-tumor activity of ET-743/DOX combination against the human rhabdomyosarcoma TE 671 and (2) possible interactions between the drugs and their biodistribution in nude mice and tumor xenografts.
The pharmacokinetic (PK) evaluation of ET-743 given alone or in combination with DOX is underway.

[13] = 24 h after treatment with approximate IC50 dose
[14] = 72 h after treatment with approximate IC50 dose
[15] = single i.v. treatment at tumor approx. 100 mg, drug alone (ET-743 0.1 mg/kg; Dx 10 mg/kg)

Row | SMILES | IC50 [4] [µM] | IC50 [5] [µM] | % G1 [6, 13] [%] | % S phase [6, 13] [%] | % G1 [6, 14] [%] | % S phase [6, 14] [%] | % G2-M [7, 13] [%] | % S phase [7, 13] [%] | % G1 [7, 14] [%] | % G2-M [7, 14] [%] | % S phase [7, 14] [%] | other results
1 | N.N.[Cl][Pt][Cl] [DDP, cisplatin] |  |  |  |  |  |  |  |  |  |  |  | antitumor effect in words [1]: partially sensitive; sensitivity of tumor to single agent [2]: resistant; sensitivity of tumor to single agent [3]: partially sensitive
2 | COc1cc(NCc2ccc3nc(N)nc(N)c3c2C)cc(OC)c1OC [TMTX, trimetrexate] | 0.006 | 70 | 31.9 | 56.8 | 32.0 | 53.7 | 1.9 | 53.8 | 35.5 | 7.0 | 57.6 | % G2-M [6, 13]: 11.3%; % G2-M [6, 14]: 14.4%; % G1 [7, 13]: 44.2%
3 | COc1cccc2c1C(=O)c1c(O)c3c(c(O)c1C2=O)C[C@@](O)(C(=O)CO)C[C@@H]3O[C@H]1C[C@H](N)[C@H](O)[C@H](C)O1 [Dx, doxorubicin] | 0.025 | 0.225 | 36.1 | 17.5 | 46.2 | 5.3 | 25.0 | 64.9 | 1.3 | 34.9 | 63.8 | antitumor effect in words ([8]; TE671 in mice, alone or combination): inactive or marginally active; Log 10 Cell Kill (LCK) [8, 15]: 0.33; tumor weight inhibition (TWI) [8, 15]: 50%; antitumor effect in words [9]: effective; antitumor effect in words [10]: inactive or marginally active; anti-tumor activity / interaction in clonogenic assay [11]: showed anti-tumor activity; PK profile of DOX (plasma and tumor concentrations) [12]: not influenced
